The text below walks through data of patent publication US20100063020A1, “ORAL PHARMACEUTICAL FORMULATIONS AND METHODS FOR PRODUCING AND USING SAME” (priority 2004, published 2010).

Values joined by “and” are separate entries in the source; they are usually repeats but may differ in a detail not shown here. Equal values may be shown once.

A short description of series [1]: Effect of sodium lauryl sulfate on aqueous solubility of 17-AAG. Format: physicochemical. The conditions noted are these: pH 6.0, sodium lauryl sulfate. From the text: Formulations of the invention may contain as much as 50% SLS.
Series [2] in a line: Oral bioavailability of prototype 17-AAG solid dosage form (capsule) in female rats. The conditions noted are these: rat; for 17-AAG AUC(0-6)^b: oral capsule (17-AAG 33%, Neusilin 64%, SLS 3%), AUC estimated from 0 to 8 hrs; for 17-AAG Cmax / 17-AG Cmax / Apparent Absolute Bioavailability: oral capsule; for 17-AG Cmax: metabolite 17-AG; for Apparent Absolute Bioavailability: vs intravenous 10 mg/kg of earlier study. It is filed as in vivo, Sprague-Dawley rats. The procedure: See, Example 18. […] The average dose administered was 14.3 mg/kg.
The average dose administered was 14.3 mg/kg. Blood samples (n=11) were collected via the jugular vein catheter prior to dosing and up to 8 hrs post dosing. The blood was allowed to clot at room temperature for approximately 20 minutes and then placed on ice until centrifugation at 10,000×G for 10 minutes. Serum was collected into polypropylene tubes and frozen at −80° C. until analysis.
% F=[(Oral AUC(0-6h)×I.V. Dose)/(I.V. AUC(0-6h)×Oral Dose)]*100

The conditions of series [3]: aqueous reconstituted lyophilized preparation containing sucrose; cited from earlier work.
[4] abbreviates: 13.6-15.1 mg/kg, individual animal.

Take `C=CCNC1=C2C[C@@H](C)C[C@H](OC)[C@H](O)[C@@H](C)/C=C(\C)[C@H](OC(N)=O)[C@@H](OC)/C=C\C=C(/C)C(=O)NC(=CC1=O)C2=O` [Compound 17-AAG, 17-allylamino-17-demethoxygeldanamycin]: the “aqueous solubility versus SLS concentration” value in series [1] was “increases linearly with increasing concentration of SLS”. Further, in series [2] (setting [4]), the “17-AAG AUC(0-6)^b” value is 32 µg·min/mL and 19 µg·min/mL and 34 µg·min/mL; the “17-AAG Cmax” value is 158 ng/mL and 117 ng/mL and 141 ng/mL; the “17-AG Cmax” value is 70 ng/mL and 61 ng/mL and 52 ng/mL; the “Apparent Absolute Bioavailability” value was 15% and 8% and 16%. For the same molecule, in series [2] (mean dose 14.3 mg/kg, mean n=3), the “17-AAG AUC(0-6)^b” value was 28 µg·min/mL, the “17-AAG Cmax” value turned out to be 139 ± 21 ng/mL, the “17-AG Cmax” value amounted to 61 ± 9 ng/mL and the “Apparent Absolute Bioavailability” value worked out at 13±4%. In addition, in series [3], the oral bioavailability is given as 24%.
